Data on 28 compounds can be found in ChEMBL document CHEMBL3244136, “Structure-activity study of beta-adrenergic agents using the SIMCA method of pattern recognition” (J Med Chem, 1978).

Where only a bound is given, the exact number is not on record here.

In test [1] the test system is Anura. Description: Displacement of (-)-[3H]alprenolol from adrenergic receptor purified from frog erythrocytes.
The subject of test [2] is Anura. Description: Displacement of (-)-[3H]alprenolol from adrenergic receptor purified from frog erythrocytes relative to isoproterenol.

`NCCc1ccc(O)cc1` registered a pKb in the test with Anura [1] of under 3.7.

`CC(NCCc1ccc(O)cc1)C(O)c1ccc(O)cc1` (centres undefined) came in with a pKb in the test on Anura [1] of 5.06. Still for that read-out and setting: to `CC(N)C(O)c1cccc(O)c1` (centres undefined) belongs 4.46; to `CNCC(O)c1cccc(NS(C)(=O)=O)c1` (centres undefined), 4.19; to `CNCC(O)c1cccc(O)c1` (centres undefined), 4.28. In the test with Anura [2], `CC(Cc1ccc(O)cc1)NCC(O)c1ccc(O)c(O)c1` (centres undefined) gave an Intrinsic activity of 1.1. For the same compound, the pKb with Anura [1] was 6.17.

The compound `Oc1ccc(CCCNCCc2ccc(O)c(O)c2)cc1` gave an Intrinsic activity in the test with Anura [2] of 0.17. For the same compound, in the test with Anura [1], the pKb is 4.64. In turn, `CC(COc1ccccc1)NC(C)C(O)c1ccc(O)c(CS(=O)(=O)N(C)C)c1` (centres undefined) had a negative logarithm of the Kb (pKb) in the test with Anura [1] of 7.12. In the case of `NC(CCO)C(O)c1ccccc1` (centres undefined), the pKb in the test on Anura [1] came out at 4.29. `CC(COc1ccccc1)NC(C)C(O)c1ccc(O)cc1` (centres undefined): the pKb in the test with Anura [1] amounted to 5.85. For the compound `CC(C)(Cc1ccc(O)cc1)NCC(O)c1ccc(O)c(O)c1` (centres undefined), in the test with Anura [2], the Intrinsic activity was 1.2. In addition, the pKb with Anura [1] was determined as 7.22. As to `CCC(N)C(O)c1ccc(O)c(O)c1` (centres undefined), in the test on Anura [2], the Intrinsic activity worked out at 0.71. In the test with Anura [1], this compound showed a negative-log Kb (pKb) of 4.74. `CCNCC(O)c1cccc(O)c1` (centres undefined) yielded a negative-log Kb (pKb) in the test with Anura [1] of 4.66. Consider `CNC[C@H](O)c1ccc(O)c(O)c1`, for which the Intrinsic activity with Anura [2] was 0.75. In addition, the negative logarithm of the Kb (pKb) in the test with Anura [1] is 5.07. Regarding `CC(Cc1ccc2c(c1)OCO2)NCC(O)c1ccc(O)c(O)c1` (centres undefined), the Intrinsic activity in the test on Anura [2] turned out to be 1.1. This compound had a negative-log Kb (pKb) with Anura [1] of 6.17. Taken in the same sequence, the figures for `CC(CCc1ccc(O)cc1)NCCc1ccc(O)c(O)c1` (centres undefined) were 0.25 and 4.62. Consider `NCC(O)c1ccc(O)cc1` (centres undefined), for which, in the test with Anura [1], the pKb was under 3.7. Still for that read-out and setting: to `COc1cccc(C(O)C(C)NC(C)C)c1` (centres undefined) belongs 5.11. In the test with Anura [1], `CC(CCc1ccccc1)NC(C)C(O)c1ccc(O)cc1` (centres undefined) came in with a pKb of 6.74. The compound `Oc1ccc(CCNCCc2ccc(O)c(O)c2)cc1` displayed an Intrinsic activity with Anura [2] of 0.25. The compound further showed a pKb with Anura [1] of 4.33. `CNC(C)C(O)c1ccccc1` (centres undefined) registered a pKb in the test with Anura [1] of 5.04. `CC(N)C(O)c1ccc(O)c(O)c1` (centres undefined) showed an Intrinsic activity in the test on Anura [2] of 0.87. In the test on Anura [1], the negative logarithm of the Kb (pKb) amounted to 4.55. Consider `NCCc1ccc(O)c(O)c1`, for which the negative-log Kb (pKb) in the test with Anura [1] is under 3.7. Same read-out and setting: to `NCCc1ccccc1` belongs 3.7; to `NC[C@H](O)c1ccc(O)c(O)c1`, under 3.7. On to `CC(C)(Cc1ccccc1)NCC(O)c1ccc(O)c(NS(C)(=O)=O)c1` (centres undefined), for which the Intrinsic activity with Anura [2] was 0.27. Further, the negative-log Kb (pKb) in the test with Anura [1] amounted to 7.85. On to `CCC(NC1CCCC1)C(O)c1ccc(O)c(O)c1` (centres undefined), for which the Intrinsic activity with Anura [2] came to 0.64. In the test on Anura [1], this compound came in with a negative logarithm of the Kb (pKb) of 4.41. `NCC(O)c1cccc(Cl)c1` (centres undefined) displayed a pKb in the test on Anura [1] of 4.08.
